Assay results published in patent publication EP3685668B1, “COMPOSITION COMPRISING ACIBENZOLAR-S-METHYL AS EFFECTIVE INGREDIENT FOR CONTROLLING BURSAPHELENCHUS XYLOPHILUS DISEASE AND METHOD FOR CONTROLLING BURSAPHELENCHUS XYLOPHILUS USING SAME” (Industry Foundation of Chonnam National University, priority 2017, dated 2019).

Experiments:
Experiment in all cases: qRT-PCR expression of induced resistance gene in pine tree callus
Format in all cases: cell-based
Conditions in all cases: 200 µg/mℓ, 24 hours
Xyloglucan = system: Xyloglucan
Method: (§1) For in vitro analysis of induced resistance, the expression of PR genes and other plant defense-related genes was determined, which are evolved in various defense mechanisms including induced resistance. The primers of sixteen induced resistance-related genes of pine tree used in this invention were listed in the below and elongation factor_1 alpha were used as a reference gene. [Table 4] The primer list of defense resistance-related genes
(§2) After the treatment with 200 µg / mℓ of candidates of the selected induced resistance material, expression of the induced resistance-related gene in pine callus was determined by qRT-PCR using the primer pairs of defense resistance-related genes in Table 4. As a candidate group of an induced resistance material in pine tree, acibenzolar-S-methyl (ASM), TDL (Tiadinil), ITL (Isotianil), PBZ (Probenzole), AZO (Azoxystrobin), VMA (Validamycin A), MeJA (Methyl jasmonate), BABA (DL-3-aminobutyric acid), 2,3-BDO (2,3-Butanediol), GABA (r-Aminobutyric acid), glucan (Glucan), ER (Ergosterol), and AZA (Azelaic acid) were used. For the in vitro analysis of the expression of induced resistance gene in pine callus, the selected induced resistance materials were applied with 500 µℓ of LM liquid medium on a surface of pine tree callus (100 mg) in 12-well microplate to give final concentration of 200 µg/mℓ. Then, the callus surface was sufficiently reacted for 24 hours with the candidate of pine tree induced resistance material by shaking at 50 rpm in a 25 °C shaking incubator under dark condition. RNAs were extracted from the callus after completion of the reaction with an induced resistance material, followed by synthesis of cDNAs. Then, by carrying out qRT-PCR, the expression of induced resistance genes was determined. [Table 5] Expression of induced resistance gene in pine tree callus by TDL, PBZ, ASM, ITL, AZO, VMA, glucan, and AZA
(§3) Based on the results of assay using young plants and gene expression by selected induce resistance materials, it seemed that acibenzolar-S-methyl had the most excellent effect. Thus, the following tests were carried out using acibenzolar-S-methyl only. Expression of the induced resistance genes at different culture time after the chemical treatment was examined. For the in vitro assay, LM medium containing pine tree callus was treated with acibenzolar-S-methyl at concentration of 200 µg / mℓ, followed by reaction for 1 day, 7 days, or 14 days in a 25°C shaking incubator under dark condition. RNAs were extracted from the callus after the reaction followed by synthesis of cDNAs. Then, by carrying out qRT-PCR, the expression of the induced resistance genes was determined. Depending on reaction time after the treatment, i.e., after 1 day, 7 days, or 14 days, the expression of the obtained induced resistance genes was examined. As a result of the in vitro callus assay depending on reaction time after the treatment with acibenzolar-S-methyl, the expression of the induced resistance-related genes is the highest at 1 day after the treatment with acibenzolar-S-methyl and gradually diminished over time, as it is shown in Table 7. In this regard, it is contemplated that the expression of genes acquired by acibenzolar-S-methyl is not maintained in highly expressed state until the pathogen invasion and just memorized with at minimum level so that the energy consumption by plant can be efficiently managed. [Table 7] Expression of induced resistance gene in pine tree callus by acibenzolar-S-methyl depending on reaction time
(§4) To have an in vitro assay according to different methods of treatment with acibenzolar-S-methyl, two separate treatment methods, i.e., surface treatment (spraying treatment) of pine tree callus and direct application of the induced resistance material to an LM medium containing pine tree callus, were performed. […]

PR_3 family class 4 = system: PR_3 family class 4
Method: as §1, §2, §3, §4

Hydroxyproline = system: Hydroxyproline
Method: as §1, §2, §3, §4

PR_5 family = system: PR_5 family
Method: as §1, §2, §3, §4

PR_1b family = system: PR_1b family
Method: as §1, §2, §3, §4

Heat shock 70 = system: Heat shock 70
Method: as §1, §2, §3, §4

Extensin = system: Extensin
Method: as §1, §2, §3, §4

PR_2 family = system: PR_2 family
Method: as §1, §2, §3, §4

Antipeptide = system: Antipeptide
Method: as §1, §2, §3, §4

Metallothionein = system: Metallothionein
Method: as §1, §2, §3, §4

PR_10 family = system: PR_10 family
Method: as §1, §2, §3, §4

PR_4 family = system: PR_4 family
Method: as §1, §2, §3, §4

PR_3 family class 1 = system: PR_3 family class 1
Method: as §1, §2, §3, §4

PR_9 family = system: PR_9 family
Method: as §1, §2, §3, §4

SMILES	Expression of induced resistance gene, Xyloglucan (Xyloglucan)	Expression of induced resistance gene, PR_3 family class 4 (PR_3 family class 4)	Expression of induced resistance gene, Hydroxyproline (Hydroxyproline)	Expression of induced resistance gene, PR_5 family (PR_5 family)	Expression of induced resistance gene, PR_1b family (PR_1b family)	Expression of induced resistance gene, Heat shock 70 (Heat shock 70)	Expression of induced resistance gene, Extensin (Extensin)	Expression of induced resistance gene, PR_2 family (PR_2 family)	Expression of induced resistance gene, Antipeptide (Antipeptide)	Expression of induced resistance gene, Metallothionein (Metallothionein)	Expression of induced resistance gene, PR_10 family (PR_10 family)	Expression of induced resistance gene, PR_4 family (PR_4 family)	Expression of induced resistance gene, PR_3 family class 1 (PR_3 family class 1)	Expression of induced resistance gene, PR_9 family (PR_9 family)
O=C(O)CCCCCCCC(=O)O [AZA, Azelaic acid]	0.76	1.16	0.9	1.45	1.15	1.42	1.15	1.02	1.43	1.97	1.16	0.99	1.12	1.27
N#Cc1ccccc1NC(=O)c1snc(Cl)c1Cl [ITL, Isotianil]	0.97	0.81	0.72	0.95	1.77	0.43	1.39	1.48	0.75	0.09	1	1.39	0.95	1.88
CC(N)CC(=O)O (racemic) [BABA, DL-3-aminobutyric acid]	0.53	0.51	0.36	0.92	0.48	0.59	0.78	0.43	0.4	1.17	1.23	7.01	0.81	0.43
C=CCOC1=NS(=O)(=O)c2ccccc21 [PBZ, Probenzole]	1.41	0.74	1.21	1.99	0.26	0.73	1.62	0.46	1.11	0.25	2.08	0.46	1.04	2.52
CC(C)[C@@H](C)/C=C/[C@@H](C)[C@H]1CC[C@H]2C3=CC=C4C[C@@H](O)CC[C@]4(C)[C@H]3CC[C@]12C [ER, Ergosterol]	1.05	0.81	1.42	1.05	1.14	1.91	1.06	1.17	2.11	1.37	1.21	1.13	1.06	1.35
CC(O)C(C)O (centres unmarked) [2,3-BDO, 2,3-Butanediol]	1.13	0.33	0.83	1.13	4.36	1.29	1.07	1.26	1.31	2.53	0.86	1.41	2.78	1.22
Cc1ccc(NC(=O)c2snnc2C)cc1Cl [TDL, Tiadinil]	1.23	1.22	0.97	1.33	1.05	0.29	1.05	0.98	0.64	0.1	1.19	1.24	0.82	1.48
